Assay results from article PMC8213057, “Targeting ALK2: An Open Science Approach to Developing Therapeutics for the Treatment of Diffuse Intrinsic Pontine Glioma” (Journal of Medicinal Chemistry, 2020).

Columns and labels:
HIPK4 = target: T1, HIPK4 (Homo sapiens, UniProt Q8NE63); settings: 1 μM; Run 1, Run 2
T1 sequence (Q8NE63 1-616): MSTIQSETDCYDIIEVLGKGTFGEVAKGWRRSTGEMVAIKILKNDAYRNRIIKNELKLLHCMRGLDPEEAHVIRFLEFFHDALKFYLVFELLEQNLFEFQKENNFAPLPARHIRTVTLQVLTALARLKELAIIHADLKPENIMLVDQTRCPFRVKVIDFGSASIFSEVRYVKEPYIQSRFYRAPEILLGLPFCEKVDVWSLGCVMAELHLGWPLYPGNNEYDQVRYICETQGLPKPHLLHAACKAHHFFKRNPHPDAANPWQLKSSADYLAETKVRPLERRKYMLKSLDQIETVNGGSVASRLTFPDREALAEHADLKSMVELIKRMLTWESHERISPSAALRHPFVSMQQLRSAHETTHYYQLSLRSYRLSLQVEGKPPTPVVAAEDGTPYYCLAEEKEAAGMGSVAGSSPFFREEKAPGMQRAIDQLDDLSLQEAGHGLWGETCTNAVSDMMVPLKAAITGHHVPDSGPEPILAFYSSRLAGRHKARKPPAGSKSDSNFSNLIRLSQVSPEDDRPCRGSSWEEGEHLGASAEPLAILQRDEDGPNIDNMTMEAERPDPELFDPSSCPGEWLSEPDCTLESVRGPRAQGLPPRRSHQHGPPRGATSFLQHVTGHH

Haspin = target: T2, Haspin (Homo sapiens, UniProt Q8TF76); assay: biochemical; settings: read-out: % enzyme activity, 1 μM; Run 1, Run 2
T2 sequence (Q8TF76 1-798): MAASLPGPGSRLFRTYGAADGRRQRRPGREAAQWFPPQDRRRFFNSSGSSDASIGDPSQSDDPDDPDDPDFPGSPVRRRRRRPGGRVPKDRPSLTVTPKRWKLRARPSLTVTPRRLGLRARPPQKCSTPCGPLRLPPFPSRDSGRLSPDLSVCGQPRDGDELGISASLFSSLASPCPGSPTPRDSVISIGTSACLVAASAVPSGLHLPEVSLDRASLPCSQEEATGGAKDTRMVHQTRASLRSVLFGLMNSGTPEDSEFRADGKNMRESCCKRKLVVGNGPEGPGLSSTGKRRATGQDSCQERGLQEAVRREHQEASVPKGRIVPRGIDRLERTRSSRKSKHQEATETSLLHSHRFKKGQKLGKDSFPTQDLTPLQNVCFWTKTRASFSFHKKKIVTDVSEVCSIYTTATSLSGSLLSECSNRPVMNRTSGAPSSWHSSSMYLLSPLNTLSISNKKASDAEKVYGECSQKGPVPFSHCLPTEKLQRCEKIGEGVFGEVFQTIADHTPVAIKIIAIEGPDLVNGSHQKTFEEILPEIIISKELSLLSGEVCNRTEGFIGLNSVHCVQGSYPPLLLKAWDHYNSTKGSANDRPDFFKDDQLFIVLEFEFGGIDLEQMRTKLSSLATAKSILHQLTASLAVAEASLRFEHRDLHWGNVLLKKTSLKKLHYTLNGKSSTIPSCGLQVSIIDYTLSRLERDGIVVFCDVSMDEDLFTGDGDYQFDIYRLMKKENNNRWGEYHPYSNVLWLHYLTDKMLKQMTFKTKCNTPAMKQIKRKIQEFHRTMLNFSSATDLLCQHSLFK

ULK1 = target: T3, ULK1 (Homo sapiens, UniProt O75385); assay: biochemical; settings: read-out: % enzyme activity, 1 μM; Run 1, Run 2
T3 sequence (O75385 1-1050): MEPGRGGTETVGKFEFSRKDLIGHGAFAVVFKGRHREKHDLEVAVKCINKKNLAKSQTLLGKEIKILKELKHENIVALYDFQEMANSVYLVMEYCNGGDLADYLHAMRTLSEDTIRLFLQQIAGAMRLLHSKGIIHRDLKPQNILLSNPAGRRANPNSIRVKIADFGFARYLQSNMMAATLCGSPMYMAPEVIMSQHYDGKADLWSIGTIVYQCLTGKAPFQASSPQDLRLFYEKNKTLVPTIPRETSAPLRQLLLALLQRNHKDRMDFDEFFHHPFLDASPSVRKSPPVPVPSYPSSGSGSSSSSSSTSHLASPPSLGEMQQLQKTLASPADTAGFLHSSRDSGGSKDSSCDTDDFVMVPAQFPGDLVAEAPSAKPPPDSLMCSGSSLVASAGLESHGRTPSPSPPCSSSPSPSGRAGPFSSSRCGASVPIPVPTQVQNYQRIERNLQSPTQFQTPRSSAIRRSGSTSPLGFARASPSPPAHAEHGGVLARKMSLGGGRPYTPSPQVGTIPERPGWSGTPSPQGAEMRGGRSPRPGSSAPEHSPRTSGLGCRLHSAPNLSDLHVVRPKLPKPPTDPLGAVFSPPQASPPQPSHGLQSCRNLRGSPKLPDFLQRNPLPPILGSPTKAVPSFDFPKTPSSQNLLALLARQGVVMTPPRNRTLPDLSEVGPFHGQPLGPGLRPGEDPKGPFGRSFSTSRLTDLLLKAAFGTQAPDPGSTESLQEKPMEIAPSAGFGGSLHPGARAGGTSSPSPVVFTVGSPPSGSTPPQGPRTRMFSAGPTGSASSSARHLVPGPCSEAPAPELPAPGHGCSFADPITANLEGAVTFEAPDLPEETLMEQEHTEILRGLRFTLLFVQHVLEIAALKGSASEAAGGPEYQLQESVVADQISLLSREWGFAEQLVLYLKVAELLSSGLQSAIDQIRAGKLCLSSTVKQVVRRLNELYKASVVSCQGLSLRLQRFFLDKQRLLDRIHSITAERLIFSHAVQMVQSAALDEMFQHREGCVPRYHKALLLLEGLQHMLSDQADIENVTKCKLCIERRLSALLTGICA

TYK1/LTK = TYK1/LTK (Homo sapiens, UniProt P29376); assay: biochemical; settings: read-out: % enzyme activity, 1 μM; Run 1, Run 2
PYK2 = PYK2 (Homo sapiens, UniProt Q14289); settings: 1 μM; Run 1, Run 2
Sequence of PYK2 (Q14289 whole entry): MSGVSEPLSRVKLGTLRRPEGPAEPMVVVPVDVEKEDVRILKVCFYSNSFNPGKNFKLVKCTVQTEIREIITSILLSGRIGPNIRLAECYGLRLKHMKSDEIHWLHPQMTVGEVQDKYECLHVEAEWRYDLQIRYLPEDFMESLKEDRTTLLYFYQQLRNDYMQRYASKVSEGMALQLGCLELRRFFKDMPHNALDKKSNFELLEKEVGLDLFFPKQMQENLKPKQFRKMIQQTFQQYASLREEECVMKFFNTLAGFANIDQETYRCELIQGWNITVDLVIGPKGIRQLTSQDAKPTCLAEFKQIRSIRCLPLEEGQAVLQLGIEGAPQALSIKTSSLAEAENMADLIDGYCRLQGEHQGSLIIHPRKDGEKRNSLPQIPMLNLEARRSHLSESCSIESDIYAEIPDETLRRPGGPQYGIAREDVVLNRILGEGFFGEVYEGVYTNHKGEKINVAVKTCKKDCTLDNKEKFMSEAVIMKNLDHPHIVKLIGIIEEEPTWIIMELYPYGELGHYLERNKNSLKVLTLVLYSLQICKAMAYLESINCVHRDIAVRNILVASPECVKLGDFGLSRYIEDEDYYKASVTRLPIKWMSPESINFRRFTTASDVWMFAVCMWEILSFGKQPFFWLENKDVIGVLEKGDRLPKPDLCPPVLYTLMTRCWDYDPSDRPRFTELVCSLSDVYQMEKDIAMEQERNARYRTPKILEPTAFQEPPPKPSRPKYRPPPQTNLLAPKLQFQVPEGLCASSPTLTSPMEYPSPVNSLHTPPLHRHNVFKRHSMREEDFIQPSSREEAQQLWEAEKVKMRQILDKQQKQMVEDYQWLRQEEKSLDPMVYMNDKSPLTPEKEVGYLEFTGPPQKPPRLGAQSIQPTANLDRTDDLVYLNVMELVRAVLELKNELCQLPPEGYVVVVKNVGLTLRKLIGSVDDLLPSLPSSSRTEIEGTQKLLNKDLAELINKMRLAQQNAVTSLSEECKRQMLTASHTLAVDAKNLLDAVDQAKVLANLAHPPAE

Sequence of TYK1/LTK (P29376 17-864): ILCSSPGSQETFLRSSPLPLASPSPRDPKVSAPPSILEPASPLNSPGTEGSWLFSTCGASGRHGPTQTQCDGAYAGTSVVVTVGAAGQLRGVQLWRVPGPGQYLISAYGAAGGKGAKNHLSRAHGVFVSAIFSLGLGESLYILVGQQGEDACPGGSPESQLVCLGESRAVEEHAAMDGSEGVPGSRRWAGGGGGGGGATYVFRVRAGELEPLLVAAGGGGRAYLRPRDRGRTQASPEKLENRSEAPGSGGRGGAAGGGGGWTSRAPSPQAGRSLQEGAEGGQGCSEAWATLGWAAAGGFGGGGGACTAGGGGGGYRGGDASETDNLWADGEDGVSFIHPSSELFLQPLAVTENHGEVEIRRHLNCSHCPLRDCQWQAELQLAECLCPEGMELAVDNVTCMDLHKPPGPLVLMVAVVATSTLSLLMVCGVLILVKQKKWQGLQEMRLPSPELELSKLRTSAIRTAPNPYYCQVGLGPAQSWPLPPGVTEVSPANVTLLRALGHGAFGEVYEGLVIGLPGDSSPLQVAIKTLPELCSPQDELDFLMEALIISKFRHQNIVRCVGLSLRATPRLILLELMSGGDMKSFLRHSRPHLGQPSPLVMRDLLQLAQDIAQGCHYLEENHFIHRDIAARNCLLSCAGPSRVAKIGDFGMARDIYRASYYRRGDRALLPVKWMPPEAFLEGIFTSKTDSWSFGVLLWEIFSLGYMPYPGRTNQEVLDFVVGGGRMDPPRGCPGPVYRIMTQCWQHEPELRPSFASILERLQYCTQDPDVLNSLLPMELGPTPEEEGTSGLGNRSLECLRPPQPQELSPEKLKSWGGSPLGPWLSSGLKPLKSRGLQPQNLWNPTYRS

Row | SMILES | % enzyme activity (HIPK4) [%] | remaining activity at 1 µM (Haspin) [%] | remaining activity at 1 µM (ULK1) [%] | remaining activity at 1 µM (TYK1/LTK) [%] | % enzyme activity (PYK2) [%]
1 | COc1cc(-c2cncc(-c3ccc(N4CCN(C)CC4)cc3)c2C)cc(F)c1C(N)=O [Compound 26a, 2-Fluoro-6-methoxy-4-(4-methyl-5-(4-(4-methylpiperazin-1-yl)phenyl)pyridin-3-yl)benzamide] | 102.90 | 83.3 | 84.7 | 99 | 85.65
2 | COc1cc(-c2cncc(-c3ccc(N4C[C@@H](C)N(C)[C@@H](C)C4)cc3)c2C)cc(F)c1C(N)=O [Compound 26c, 2-Fluoro-6-methoxy-4-(4-methyl-5-(4-((3R,5S)-3,4,5-trimethylpiperazin-1-yl)phenyl)pyridin-3-yl)benzamide] | 97.53 | 84.8 | 89.8 | 99.3 | 85.73
